This assay deals with T1, VgEcR and RXR heterodimeric receptor (pVgRXR) with pIND/luc in CHO cells (Drosophila melanogaster, UniProt P34021, E282G/G283S/G286V).
T1 construct: host or cells: CHO cells (ATCC CCL-61), transiently transfected or stably transformed with pVgRXR
T1 sequence (P34021 1-878 E282G/G283S/G286V): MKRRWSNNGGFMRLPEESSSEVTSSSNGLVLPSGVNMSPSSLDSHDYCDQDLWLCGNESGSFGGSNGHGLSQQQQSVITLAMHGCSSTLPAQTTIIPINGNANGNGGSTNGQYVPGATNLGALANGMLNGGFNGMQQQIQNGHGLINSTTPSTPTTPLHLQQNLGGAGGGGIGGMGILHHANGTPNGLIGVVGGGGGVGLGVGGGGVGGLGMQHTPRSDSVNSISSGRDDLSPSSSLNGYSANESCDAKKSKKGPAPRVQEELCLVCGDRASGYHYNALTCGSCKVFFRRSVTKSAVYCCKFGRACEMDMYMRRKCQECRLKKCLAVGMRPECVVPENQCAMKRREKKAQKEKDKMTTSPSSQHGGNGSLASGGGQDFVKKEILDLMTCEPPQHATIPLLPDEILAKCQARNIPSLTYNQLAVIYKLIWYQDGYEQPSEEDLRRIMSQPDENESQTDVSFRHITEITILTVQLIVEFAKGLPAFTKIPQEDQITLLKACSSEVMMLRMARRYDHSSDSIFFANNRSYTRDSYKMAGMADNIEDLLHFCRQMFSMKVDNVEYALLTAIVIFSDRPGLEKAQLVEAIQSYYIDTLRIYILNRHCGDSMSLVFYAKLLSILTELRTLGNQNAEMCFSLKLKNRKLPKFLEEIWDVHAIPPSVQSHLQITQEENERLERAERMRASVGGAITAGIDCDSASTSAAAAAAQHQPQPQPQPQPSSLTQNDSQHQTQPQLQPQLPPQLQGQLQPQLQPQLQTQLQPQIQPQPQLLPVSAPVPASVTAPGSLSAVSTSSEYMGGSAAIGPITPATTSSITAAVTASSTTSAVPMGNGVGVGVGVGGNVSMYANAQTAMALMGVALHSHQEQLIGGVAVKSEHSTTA
T1 sequence (P19793 1-462 partner): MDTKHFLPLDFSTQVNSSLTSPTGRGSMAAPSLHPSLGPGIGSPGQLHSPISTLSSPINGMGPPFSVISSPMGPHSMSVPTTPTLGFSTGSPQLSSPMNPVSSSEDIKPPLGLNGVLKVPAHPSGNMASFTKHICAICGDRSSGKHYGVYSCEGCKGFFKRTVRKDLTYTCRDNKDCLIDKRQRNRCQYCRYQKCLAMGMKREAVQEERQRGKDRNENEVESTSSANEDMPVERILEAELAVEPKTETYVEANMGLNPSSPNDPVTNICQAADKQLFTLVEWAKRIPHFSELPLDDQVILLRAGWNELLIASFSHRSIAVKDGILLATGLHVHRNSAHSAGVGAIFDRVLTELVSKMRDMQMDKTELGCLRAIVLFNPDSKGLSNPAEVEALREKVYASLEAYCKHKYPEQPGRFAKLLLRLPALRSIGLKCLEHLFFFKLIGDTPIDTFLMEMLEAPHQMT
The assay is described as follows: Luciferase gene activation in transiently transfected CHO cells. It counts as cell-based. Particulars: ligand 10 μM; for Luciferase activity: average of duplicate samples, no ligand = 42; for Induction Ratio (RLU in presence and absence of the ligand): luciferase. The text has this:
pVgRXR (Invitrogen Corp., Carlsbad, Calif.) is an […] plasmid that expresses both VgEcR and RXR to form a modified heterodimeric nuclear receptor (see No, D., et. al., (1996) Proc. Natl. Acad. Sci. USA, 93, 3346-3351). The ecdysone receptor (VgEcR) is derived from the natural Drosophila ecdysone receptor and modified to contain the VP16 transactivation domain (see Cress, W. D., and Triezenberg, S. J. (1991), Science 251, 87-90; Sadowski, I., et. al (1988) Nature 335, 563-564; Triezenberg, S. J et. al., (1988), Genes Dev 2, 718-729; Triezenberg, S. J., et. al., (1988), Genes Dev 2, 730-742). RXR as the mammalian homologue of USP (ultraspiracle), the natural partner to the Drosophila ecdysone receptor (see Yao, T. -P., et. al., (1993), Nature 366, 476-479, Yao, T. -P., et. al., (1992), Cell 71, 63-72). The P-box region of the VgEcR DNA binding domain was modified to recognize the hybrid ecdysone response element that consists of one half-site from the gluccorticoid response element (see Umesono, K., and Evans, R. M. (1989), Cell 57, 1139-1146) and one half-site from the natural ecdysone response element. This hybrid response element reduces any possible interaction with the farsenoid X receptor that may bind the natural ecdysone responsive element (EcRE). The cytomegalovirus enhancer-promoter drives expression of VgEcR, and the Rous sarcoma virus promoter drives expression of RXR. The vector pIND (Invitrogen Corp) is a 5024 bp vector based on pcDNA3.1. It contains five hybrid E/GREs recognized by the modified ecdysone receptor expressed from pVgRXR and a minimal heat shock promoter (see Yao, T. P., et. al., (1993), Nature, 366, 476-479). pIND/lacZ (Invitrogen Crop.) is a 8170 bp plasmid that contains the β-galactosidase gene as a reporter enzyme. Cotransfection of pIND/lacZ and pVgRXR results in the induction of β-galactosidase expression upon addition of ecdysone agonists such as muristerone A. The reporter plasmid pIND/luc was constructed by subcloning the firefly luciferase gene from pGL3 (Promega/E1741) as a Nhe I-BamHI fragment into pIND, also digested with Nhe I and BamHI.
CHO cells (ATCC #CCL-61) were maintained by F-12 Nutrient mixture (Ham's media) (Gibco/BRL, 11765-054) supplemented with 10% fetal bovine serum, (FBS, complete medium; Gibco/BRL, 16000-036). These cells were maintained at 37° C. in 5% CO2 in 95% atmospheric air.
The CHO cells were seeded into 12-well tissue culture plates at a concentration of 0.5×10^5 cells per ml per well. The lipid Pfx-8 (Invitrogen, T930-18) was used to transiently transfect the ecdysone inducible expression system (Invitrogen catalog number K1000-01). The ecdysone inducible expression system consists of pVgRXR, encoding the receptor subunits, and pIND/lacZ or pIND/luc, containing the response element and a reporter gene encoding β-galactosidase or luciferase respectively. Twenty-four hours after seeding cells, the lipid/DNA solution was prepared by 0.5 mg/ml of VgRXR and 0.5 mg/ml pIND/lacZ or pIND/luc DNAs in sterile water. Thirty-six μl of Pfx-8 was diluted in a sterile 17×100 mm polystyrene tube containing 1.5 ml Opti-MEM medium (Gibco/BRL, 31985). Six μl of the plasmid DNA stock was mixed with 1.5 ml of Opti-MEM medium in another polystyrene tube. The DNA and the lipid solutions were combined to make 3 ml of transfection solution (enough for one set of triplicate samples). Cells were washed with phosphate buffered solution (PBS; Gibco/BRL, 14190-144) three times by aspirating medium from the cells. One ml transfection solution was added per well. Cells were incubated for four hours, and the transfection medium replaced with the same volume of complete medium. Cells were incubated for an additional 20 hours.
Stock solutions (10^−2 M) were prepared for muristerone A and the non-steroidal ligands of the present invention in ethanol and acetone respectively, and stored at −20° C. […]

11 compounds from patent publication US20010044151A1, “Ligands for modulating the expression of exogenous genes via an ecdysone receptor complex” (priority 1998, published 2001) can be followed below.

As for `CC(C)CC[C@@H](O)[C@](C)(O)[C@H]1CC[C@@]2(O)C3=CC(=O)[C@]4(O)C[C@@H](O)[C@@H](O)C[C@]4(C)[C@H]3[C@H](O)C[C@]12C` [CE-3, muristerone A, reference compound], the Luciferase activity was found to be 316 RLU; the “Induction Ratio (RLU in presence and absence of the ligand)” value (shortened to “Induction Ratio”) turned out to be 8.

Turning to `CCc1ccc(C(=O)NN(C(=O)c2cc(C)cc(C)c2)C(C)(C)C)cc1` [CE-1, N-(4-ethylbenzoyl)-N′-(3,5-dimethylbenzoyl)-N′-tert-butyl-hydrazine, reference compound], the Luciferase activity was 89 RLU; the “Induction Ratio” value worked out at 2.

As to `Cc1cc(C)cc(C(=O)N(NC(=O)c2ccc3c(c2C)OCCO3)C(C)(C)C)c1` [Ligand 2], the Luciferase activity is given as 204 RLU; the “Induction Ratio” value turned out to be 5.

In the case of `COc1cccc(C(=O)NN(C(=O)c2cc(C)cc(C)c2)C(C)(C)C)c1C` [Ligand 3], the Luciferase activity is on record as 324 RLU; the “Induction Ratio” value is 8.

`CCc1c(OC)cccc1C(=O)NN(C(=O)c1cc(C)cc(C)c1)C(C)(C)C` [Ligand 5]: the Luciferase activity came out at 313 RLU; the “Induction Ratio” value came to 8.

On to `CCc1c(OC)cccc1C(=O)NN(C(=O)c1cc(Cl)cc(Cl)c1)C(C)(C)C` [Ligand 13], for which the Luciferase activity is 226 RLU; the “Induction Ratio” value was 5.

Regarding `CCc1c(OC)cccc1C(=O)NN(C(=O)c1cc(F)cc(F)c1)C(C)(C)C` [Ligand 4], the Luciferase activity was found to be 251 RLU; the “Induction Ratio” value is 6.

On to `CC(C)(C)N(NC(=O)c1ccccc1)C(=O)c1ccccc1` [CE-2, 1,2-dibenzoyl-1-tert-butyl-hydrazine, reference compound], for which the Luciferase activity is listed as 36 RLU; the “Induction Ratio” value stood at 1.

As for `CCc1c(OC)cccc1C(=O)NN(C(=O)c1cccc(OC)c1)C(C)(C)C` [Ligand 1], the Luciferase activity is 275 RLU; the “Induction Ratio” value came to 7.

With `CCOc1cccc(C(=O)NN(C(=O)c2cc(C)cc(C)c2)C(C)(C)C)c1CC` [Ligand 12], the Luciferase activity is reported as 305 RLU; the “Induction Ratio” value amounted to 7.

Consider `CC(C)CC[C@@H](O)[C@](C)(O)[C@H]1CC[C@@]2(O)C3=CC(=O)[C@@H]4C[C@@H](O)[C@@H](O)C[C@]4(C)[C@H]3CC[C@]12C` [CE-4, ponasterone A, reference compound], for which the Luciferase activity is recorded as 418 RLU; the “Induction Ratio” value turned out to be 10.
